According to paper PMC6792352, “Limited Chemical Structural Diversity Found to Modulate Thyroid Hormone Receptor in the Tox21 Chemical Library” (Environmental Health Perspectives, 2019):
Where a name gives a salt, the structure may show the parent alone.

Assay: in vitro
Conditions: rat, gh3-tre-luc cells

**Q.** Which CC50 at 24 h (AC50 (uM) modified / 1000) does the source give for COCCCOc1cc(C[C@@H](C[C@H](N)[C@@H](O)C[C@H](C(=O)NCC(C)(C)C(N)=O)C(C)C)C(C)C)ccc1OC [Aliskiren hydrochloride] here?
**A.** > 50 µM

**Q.** For O=C(O)c1cc(N=Nc2ccc([N+](=O)[O-])cc2)ccc1O [Alizarin Yellow R], which CC50 at 24 h (AC50 (uM) modified / 1000) is on record?
**A.** 58 µM

**Q.** Which CC50 at 24 h (AC50 (uM) modified / 1000) does the source give for O=C1c2ccccc2C(=O)c2c1ccc(O)c2O [Alizarin] here?
**A.** > 50 µM

**Q.** For C=CCC1=C(C)C(OC(=O)[C@@H]2[C@@H](C=C(C)C)C2(C)C)CC1=O (stereo partly drawn) [Allethrin], which CC50 at 24 h (AC50 (uM) modified / 1000) is on record?
**A.** 53.2 µM

**Q.** For C=CCOc1cc(Cl)ccc1C(=O)NCCN(CC)CC [Alloclamide], which CC50 at 24 h (AC50 (uM) modified / 1000) is on record?
**A.** 9.52 µM

**Q.** With COC(=O)[C@@H]1[C@H]2CC[C@@H](C[C@H]1OC(=O)c1ccccc1)N2C [Allococaine hydrochloride] as the compound, how does the CC50 at 24 h (AC50 (uM) modified / 1000) read?
**A.** > 50 µM

**Q.** With Oc1ncnc2[nH]ncc12 [Allopurinol] as the compound, how does the CC50 at 24 h (AC50 (uM) modified / 1000) read?
**A.** > 90 µM

**Q.** With C=CCON=C(CCC)C1C(=O)CC(C)(C)C(C(=O)OC)C1=O (stereo not drawn) [Alloxydim-sodium] as the compound, how does the CC50 at 24 h (AC50 (uM) modified / 1000) read?
**A.** > 90 µM

**Q.** For COc1cc(S(=O)(=O)O)c(C)cc1N=Nc1c(O)ccc2cc(S(=O)(=O)O)ccc12 [Allura Red C.I.16035], which CC50 at 24 h (AC50 (uM) modified / 1000) is on record?
**A.** 37.7 µM

**Q.** For C=CCOCC(O)CCl (stereo not drawn) [Allyl 3-chloro-2-hydroxypropyl ether], which CC50 at 24 h (AC50 (uM) modified / 1000) is on record?
**A.** > 90 µM

**Q.** With C=CCCC(=O)/C=C/C1C(C)=CCCC1(C)C (stereo not drawn) [Allyl Ionone] as the compound, how does the CC50 at 24 h (AC50 (uM) modified / 1000) read?
**A.** 80.7 µM

**Q.** Which CC50 at 24 h (AC50 (uM) modified / 1000) does the source give for C=CCOC(C)=O [Allyl acetate] here?
**A.** > 90 µM

**Q.** With C=CCO [Allyl alcohol] as the compound, how does the CC50 at 24 h (AC50 (uM) modified / 1000, Tox21_110001=Tox21_200200, viability, 1 nM T3 present, 24 h) read?
**A.** > 100 µM

**Q.** What about the CC50 at 24 h (AC50 (uM) modified / 1000, Tox21_110001=Tox21_303507, viability, 1 nM T3 present, 24 h) of the same compound?
**A.** > 90 µM

**Q.** With C=CCOC(=O)c1ccccc1N [Allyl anthranilate] as the compound, how does the CC50 at 24 h (AC50 (uM) modified / 1000, Tox21_110001=Tox21_201129, viability, 1 nM T3 present, 24 h) read?
**A.** > 90 µM

**Q.** For C=CCBr [Allyl bromide], which CC50 at 24 h (AC50 (uM) modified / 1000, Tox21_110001=Tox21_200801, viability, 1 nM T3 present, 24 h) is on record?
**A.** > 100 µM

**Q.** Which CC50 at 24 h (AC50 (uM) modified / 1000, Tox21_110001=Tox21_200824, viability, 1 nM T3 present, 24 h) does the source give for C=CCCl [Allyl chloride] here?
**A.** > 100 µM

**Q.** Which CC50 at 24 h (AC50 (uM) modified / 1000) does the source give for C=CCOCC1CO1 (stereo not drawn) [Allyl glycidyl ether] here?
**A.** > 90 µM

**Q.** With C=CCN=C=S [Allyl isothiocyanate] as the compound, how does the CC50 at 24 h (AC50 (uM) modified / 1000) read?
**A.** > 90 µM

**Q.** For C=CCOC(=O)CC(C)C [Allyl isovalerate], which CC50 at 24 h (AC50 (uM) modified / 1000) is on record?
**A.** > 90 µM

**Q.** For C=CCOC(=O)C(=C)C [Allyl methacrylate], which CC50 at 24 h (AC50 (uM) modified / 1000) is on record?
**A.** > 100 µM

**Q.** For C=CCOC(=O)CCCCCCCC [Allyl nonanoate], which CC50 at 24 h (AC50 (uM) modified / 1000) is on record?
**A.** > 90 µM

**Q.** For C=CCSSCCC [Allyl propyl disulfide], which CC50 at 24 h (AC50 (uM) modified / 1000) is on record?
**A.** > 90 µM

**Q.** With C=CC[C@]1(O)CC[C@H]2[C@@H]3CCC4=CCCC[C@@H]4[C@H]3CC[C@@]21C [Allylestrenol] as the compound, how does the CC50 at 24 h (AC50 (uM) modified / 1000) read?
**A.** 41.6 µM

**Q.** Which CC50 at 24 h (AC50 (uM) modified / 1000) does the source give for C=CCNC(N)=S [Allylthiourea] here?
**A.** > 90 µM

**Q.** For CN(C)CCc1c[nH]c2ccc(CS(=O)(=O)N3CCCC3)cc12 [Almotriptan], which CC50 at 24 h (AC50 (uM) modified / 1000) is on record?
**A.** > 50 µM

**Q.** With O=C1c2cccc(O)c2C(=O)c2c(O)cc(CO)cc21 [Aloe-emodin] as the compound, how does the CC50 at 24 h (AC50 (uM) modified / 1000) read?
**A.** > 90 µM

**Q.** With O=C1c2c(O)cccc2[C@H]([C@@H]2O[C@H](CO)[C@@H](O)[C@H](O)[C@H]2O)c2cc(CO)cc(O)c21 [Aloin A] as the compound, how does the CC50 at 24 h (AC50 (uM) modified / 1000) read?
**A.** > 50 µM

**Q.** Which CC50 at 24 h (AC50 (uM) modified / 1000) does the source give for O=C1c2c(O)cccc2C([C@@H]2O[C@H](CO)[C@@H](O)[C@H](O)[C@H]2O)c2cc(CO)cc(O)c21 (stereo partly drawn) [Aloin] here?
**A.** > 50 µM

**Q.** With Cc1[nH]cnc1CN1CCc2c(c3ccccc3n2C)C1=O [Alosetron hydrochloride] as the compound, how does the CC50 at 24 h (AC50 (uM) modified / 1000) read?
**A.** > 50 µM

**Q.** Which CC50 at 24 h (AC50 (uM) modified / 1000) does the source give for Cc1cn([C@H]2C[C@H](F)[C@@H](CO)O2)c(=O)[nH]c1=O [Alovudine] here?
**A.** > 50 µM

**Q.** Which CC50 at 24 h (AC50 (uM) modified / 1000) does the source give for CCCN(CCC)C(=O)Cc1c(-c2ccc(Cl)cc2)nc2ccc(Cl)cn12 [Alpidem] here?
**A.** > 50 µM

**Q.** With Cc1nnc2n1-c1ccc(Cl)cc1C(c1ccccc1)=NC2 [Alprazolam] as the compound, how does the CC50 at 24 h (AC50 (uM) modified / 1000) read?
**A.** > 50 µM

**Q.** For C=CCc1ccccc1OCC(O)CNC(C)C (stereo not drawn) [Alprenolol], which CC50 at 24 h (AC50 (uM) modified / 1000) is on record?
**A.** > 50 µM

**Q.** With CCCCC[C@H](O)/C=C/[C@H]1[C@H](O)CC(=O)[C@@H]1CCCCCCC(=O)O [Alprostadil] as the compound, how does the CC50 at 24 h (AC50 (uM) modified / 1000) read?
**A.** > 20 µM

**Q.** Which CC50 at 24 h (AC50 (uM) modified / 1000) does the source give for O=C(O)CN1C(=O)c2cccc3cccc(c23)C1=O [Alrestatin] here?
**A.** > 50 µM

**Q.** With O=C(c1ccc(F)cc1)C1CCN(CCn2c(=S)[nH]c3ccccc3c2=O)CC1 [Altanserin hydrochloride] as the compound, how does the CC50 at 24 h (AC50 (uM) modified / 1000) read?
**A.** > 50 µM

**Q.** With C=CCSCC1Nc2cc(Cl)c(S(N)(=O)=O)cc2S(=O)(=O)N1 (stereo not drawn) [Althiazide] as the compound, how does the CC50 at 24 h (AC50 (uM) modified / 1000) read?
**A.** > 50 µM

**Q.** For C=CC[C@]1(O)CC[C@H]2[C@@H]3CCC4=CC(=O)CCC4=C3C=C[C@@]21C [Altrenogest], which CC50 at 24 h (AC50 (uM) modified / 1000) is on record?
**A.** > 50 µM
